Reference: US8853238B2, “Fused heterocyclic compound and use thereof for pest control” (Sumitomo Chemical Company, Limited, priority 2010, dated 2014)

What was measured:
Format in all cases: in vivo
[1] = test system: Aphis gossypii; experiment: Test Example 2: root immersion of cucumber seedling, then inoculation with Aphis gossypii; details: 168 h; 500 ppm active ingredient; cucumber root part immersed in 5 ml; 30 Aphis gossypii inoculated one day after treatment; examined after further seven days
Experimental: A root part of a cucumber seedling (the first true leaf stage) from which soil had been washed off was immersed in 5 ml of each of the diluted solutions, and one day after treatment, on the cucumber leaf surface was inoculated with 30 Aphis gossypii (whole stage). After further seven days, the number of insect of living Aphis gossypii parasitized on the leaves of the cucumber was examined, and a control value was calculated according to the following equation: Control value (%)={1−(Cb×Tai)/(Cai×Tb))×100 wherein symbols represent as follows: Cb: the number of insects in a non-treated section before treatment, Cai: the number of insects in a non-treated section in observation, Tb: the number of insects in a treated-section before treatment, Tai: the number of insects in a treated-section in observation; wherein the non-treated section represents a section where the test diluted solution prepared by diluting the formulation without the present compound in Formulation Example 5 with the same amount of water as in the treated-section was used.

[2] = test system: Nilaparvata lugens; experiment: Test Example 4: spray on rice seedling, release of Nilaparvata lugens larvae; details: 144 h, read-out: Control value
[3] = test system: Aphis gossypii; experiment: Test Example 1: spray on cucumber seedling inoculated with Aphis gossypii; details: topical, 144 h; 500 ppm active ingredient (Formulation Example 5 diluted with water); 20 ml sprayed on cucumber seedling with about 30 Aphis gossypii; six days after spraying
Experimental: On the other hand, on a cucumber seedling (the first true leaf stage) planted in a plastic cup was inoculated with about 30 Aphis gossypii, and leaving it for a day. Twenty ml of each of the above test spray solutions was sprayed on this seedling. Six days after spraying, the number of the surviving Aphis gossypii parasitized on the leaves of the cucumber was examined, and a control value was calculated according to the following equation: Control value (%)={1−(Cb×Tai)/(Cai×Tb))×100 wherein symbols represent as follows: Cb: the number of insects in a non-treated section before treatment, Cai: the number of insects in a non-treated section in observation, Tb: the number of insects in a treated-section before treatment, Tai: the number of insects in a treated-section in observation; wherein the non-treated section represents a section where the test spray solution prepared by diluting the formulation without the present compound in Formulation Example 5 with the same amount of water as in the treated-section was sprayed.

[4] = test system: Nilaparvata lugens; experiment: Test Example 5: drench at foot of rice seedling, release of Nilaparvata lugens larvae; details: soil, 144 h; 500 ppm active ingredient; rice seedling drenched at its foot with 5 ml, kept 7 days; twenty third-fourth instar larvae of Nilaparvata lugens; examined after 6 days
Experimental: On the other hand, a rice seedling (2 weeks after sowing, the second leaf stage) planted in a plastic cup was drenched at its foot with 5 ml of each of the diluted solutions, and kept in a greenhouse of 25° C. for 7 days. Twenty third-fourth instar larvae of Nilaparvata lugens were released, and further kept in the greenhouse for 6 days, then the number of insect of living Nilaparvata lugens parasitized on the rice was examined, and a control value was calculated according to the following equation: Control value (%)={1−(Cb×Tai)/(Cai×Tb))×100 wherein symbols represent as follows: Cb: the number of insects in a non-treated section before treatment, Cai: the number of insects in a non-treated section in observation, Tb: the number of insects in a treated-section before treatment, Tai: the number of insects in a treated-section in observation; wherein the non-treated section represents a section where the test diluted solution prepared by diluting the formulation without the present compound in Formulation Example 5 with the same amount of water as in the treated-section was used.

[5] = test system: Bemisia tabaci; experiment: Test Example 6: spray on tomato seedling with Bemisia tabaci instar larvae; details: 168 h; 500 ppm active ingredient; 20 ml/cup sprayed on tomato seedling with hatched Bemisia tabaci instar larvae; after 7 days at 25° C.
Experimental: On the other hand, Bemisia tabaci adult was released on a tomato seedling (the third true leaf stage) planted in a polyethylene cup, and made to lay eggs for about 72 hours. The tomato seedling was kept in a greenhouse for 8 days. When instar larvae hatched from the eggs, the above test spray solution was sprayed in the amount of 20 ml/cup. The cup was kept in a greenhouse at 25° C. After the keeping for 7 days, the number of surviving instar larvae on the tomato leaves was examined, and a control value was calculated according to the following equation: Control value (%)={1−(Cb×Tai)/(Cai×Tb))×100 wherein symbols represent as follows: Cb: the number of insects in a non-treated section before treatment, Cai: the number of insects in a non-treated section in observation, Tb: the number of insects in a treated-section before treatment, Tai: the number of insects in a treated-section in observation; wherein the non-treated section represents a section where the test spray solution prepared by diluting the formulation without the present compound in Formulation Example 5 with the same amount of water as in the treated-section was sprayed.

[6] = 500 ppm active ingredient, rice seedling sprayed with 10 ml, third-fourth instar larvae of Nilaparvata lugens, after 6 days at 25° C.

SMILES | pest or weed control at 500 ppm [1] | pest or weed control at 500 ppm [2, 6] | also measured
CC[S+]([O-])c1ccccc1-c1nc2cc(Br)cnc2n1C (stereo not drawn) [Present Compound 43, 6-bromo-2-(2-ethylsulfinylphenyl)-3-methyl-3H-imidazo[4,5-b]pyridine] | ≥ 90% |  | 
CCS(=O)(=O)c1ccccc1-c1nc2cc(C(F)(F)F)ccc2n1C [Present Compound 70, 2-(2-ethylsulfonylphenyl)-1-methyl-5-trifluoromethyl-1H-benzimidazole] | ≥ 90% |  | 
CCSc1cc(Br)ccc1-c1nc2cc(C(F)(F)F)cnc2n1C [compound 238, 2-(4-bromo-2-ethylsulfanylphenyl)-3-methyl-6-trifluoromethyl-3H-imidazo[4,5-b]pyridine] |  | ≥ 90% | 
CCS(=O)(=O)c1ccccc1-c1nc2cc(C(F)(F)F)cnc2o1 [Present Compound 83, 2-(2-ethylsulfonylphenyl)-6-trifluoromethyloxazolo[5,4-b]pyridine] | ≥ 90% | ≥ 90% | 
CCSc1ccccc1-c1nc2cc(C(F)(F)C(F)(F)C(F)(F)F)cnc2n1C [Present Compound 128, 2-(2-ethylsulfanyl-phenyl)-6-heptafluoropropyl-3-methyl-3H-imidazo[4,5-b]pyridine] |  |  | pest or weed control at 500 ppm ([2]; Nilaparvata lugens): ≥ 90%
CCSc1cc(C(F)(F)F)ccc1-c1nc2cc(S(F)(F)(F)(F)F)ccc2n1C [compound 314, 2-(2-ethylsulfanyl-4-trifluoromethyl-phenyl)-1-methyl-5-(pentafluorosulphur)-1H-benzimidazole] |  | ≥ 90% | 
CCSc1ccccc1-c1nc2cc(C(F)(F)F)ccc2n1C [Present Compound 68, 2-(2-ethylsulfanylphenyl)-1-methyl-5-trifluoromethyl-1H-benzimidazole] |  | ≥ 90% | 
CCSc1ccccc1-c1nc2ncc(C(F)(F)F)cc2n1C [Present Compound 66, 2-(2-ethylsulfanylphenyl)-1-methyl-6-trifluoromethyl-1H-imidazo[4,5-b]pyridine] | ≥ 90% |  | pest or weed control at 500 ppm [3]: ≥ 90%
CSc1ccccc1-c1nc2cc(C(F)(F)F)cnc2n1C [Present Compound 1, 3-methyl-2-(2-methylsulfanylphenyl)-6-trifluoromethyl-3H-imidazo[4,5-b]pyridine] |  | ≥ 90% | 
CCSc1ccccc1-c1nc2cc(C(F)(F)F)cnc2s1 [compound 183, 2-(2-ethylsulfanylphenyl)-6-(trifluoromethyl)thiazolo[5,4-b]pyridine] |  |  | pest or weed control at 500 ppm [3]: ≥ 90%
CC[S+]([O-])c1ccccc1-c1nc2nc(C(F)(F)F)ccc2n1C (stereo not drawn) [compound 167, 2-(2-ethylsulfinylphenyl)-1-methyl-5-trifluoromethyl-1H-imidazo[4,5-b]pyridine] | ≥ 90% |  | 
CCOCn1c(-c2ccccc2SCC)nc2cc(C(F)(F)F)cnc21 [Present Compound 33, 3-ethoxymethyl-2-(2-ethylsulfanylphenyl)-6-trifluoromethyl-3H-imidazo[4,5-b]pyridine] | ≥ 90% |  | 
Cn1c(-c2ccccc2[S+]([O-])C(C)(C)C)nc2cc(C(F)(F)F)cnc21 (stereo not drawn) [Present Compound 16, 2-(2-tert-butylsulfinylphenyl)-3-methyl-6-trifluoromethyl-3H-imidazo[4,5-b]pyridine] | ≥ 90% |  | 
CC[S+]([O-])c1ccccc1-c1nc2cc(C(F)(F)F)ccc2n1C (stereo not drawn) [Present Compound 69, 2-(2-ethylsulfinylphenyl)-1-methyl-5-trifluoromethyl-1H-benzimidazole] | ≥ 90% | ≥ 90% | 
CCS(=O)(=O)c1ccccc1-c1nc2cc([S+]([O-])C(F)(F)F)cnc2n1C (stereo not drawn) [compound 214, 2-(2-ethylsulfonylphenyl)-6-trifluoromethylsulfinyl-3-methyl-3H-imidazo[4,5-b]pyridine] |  |  | pest or weed control at 500 ppm [4]: ≥ 90%
CCOCn1c(-c2ccccc2S(=O)(=O)CC)nc2cc(C(F)(F)F)cnc21 [Present Compound 36, 2-(2-ethylsulfonylphenyl)-3-ethoxymethyl-6-trifluoromethyl-3H-imidazo[4,5-b]pyridine] | ≥ 90% |  | 
CC[S+]([O-])c1ccccc1-c1nc2cc(I)cnc2n1C (stereo not drawn) [Present Compound 46, 2-(2-ethylsulfinylphenyl)-6-iodo-3-methyl-3H-imidazo[4,5-b]pyridine] | ≥ 90% | ≥ 90% | pest or weed control at 500 ppm [3]: ≥ 90%
CC[S+]([O-])c1ccccc1-c1nc2cc(C(F)F)cnc2n1C (stereo not drawn) [Present Compound 53, 6-difluoromethyl-2-(2-ethylsulfinylphenyl)-3-methyl-3H-imidazo[4,5-b]pyridine] | ≥ 90% |  | pest or weed control at 500 ppm [3]: ≥ 90%
CCSc1ccccc1-c1nc2ccc(C(F)(F)F)nc2n1C [Present Compound 151, 2-(2-ethylsulfanylphenyl)-3-methyl-5-trifluoromethyl-3H-imidazo[4,5-b]pyridine] |  |  | pest or weed control at 500 ppm [3]: ≥ 90%
CC(C)Sc1ccccc1-c1nc2cc(C(F)(F)F)cnc2n1C [Present Compound 12, 2-(2-isopropylsulfanylphenyl)-3-methyl-6-trifluoromethyl-3H-imidazo[4,5-b]pyridine] |  | ≥ 90% | 
CCS(=O)(=O)c1ccccc1-c1nc2cc(C(F)(F)F)cnc2s1 [compound 185, 2-(2-ethylsulfonylphenyl)-6-(trifluoromethyl)thiazolo[5,4-b]pyridine] |  |  | pest or weed control at 500 ppm [4]: ≥ 90%
CC[S+]([O-])c1ccccc1-c1nc2cc(C#N)cnc2n1C (stereo not drawn) [Present Compound 49, 6-cyano-2-(2-ethylsulfinylphenyl)-3-methyl-3H-imidazo[4,5-b]pyridine] |  |  | pest or weed control at 500 ppm [5]: ≥ 90%
CCS(=O)(=O)c1ccccc1-c1nc2cc(C(F)(F)F)cnc2n1COC [Present Compound 38, 2-(2-ethylsulfonylphenyl)-3-methoxymethyl-6-trifluoromethyl-3H-imidazo[4,5-b]pyridine] |  |  | pest or weed control at 500 ppm [4]: ≥ 90%
CC[S+]([O-])c1ccccc1-c1nc2cc(C(F)(F)F)cnc2o1 (stereo not drawn) [Present Compound 82, 2-(2-ethylsulfinylphenyl)-6-trifluoromethyloxazolo[5,4-b]pyridine] | ≥ 90% |  | 
CCOCn1c(-c2ccccc2SCC)nc2ncc(C(F)(F)F)cc21 [Present Compound 34, 1-ethoxymethyl-2-(2-ethylsulfanylphenyl)-6-trifluoromethyl-1H-imidazo[4,5-b]pyridine] | ≥ 90% |  | 
CC[S+]([O-])c1ccccc1-c1nc2cc(C(F)(F)F)cc(Cl)c2n1C (stereo not drawn) [Present Compound 72, 7-chloro-2-(2-ethylsulfinylphenyl)-1-methyl-5-trifluoromethyl-1H-benzimidazole] |  |  | pest or weed control at 500 ppm [3]: ≥ 90%
CSc1ccccc1-c1nc2cc(C(F)(F)F)ccc2s1 [Present Compound 84, 2-(2-methylsulfanylphenyl)-5-trifluoromethylbenzothiazole] |  | ≥ 90% | 
